One assay concerns AnlO. The format is cell-based, Bacillus anthracis.
Another assay deals with α-hemolysin (Staphylococcus aureus, UniProt P09616). It is filed as cell-based.
Assay [1] relates to HIV-1-positive J1.1 cell line. It is filed as cell-based.
The subject of a further assay is healthy macrophages. The format is cell-based, human.

Some results are limits rather than exact numbers.

Chain of α-hemolysin (P09616 27-319 limits assumed): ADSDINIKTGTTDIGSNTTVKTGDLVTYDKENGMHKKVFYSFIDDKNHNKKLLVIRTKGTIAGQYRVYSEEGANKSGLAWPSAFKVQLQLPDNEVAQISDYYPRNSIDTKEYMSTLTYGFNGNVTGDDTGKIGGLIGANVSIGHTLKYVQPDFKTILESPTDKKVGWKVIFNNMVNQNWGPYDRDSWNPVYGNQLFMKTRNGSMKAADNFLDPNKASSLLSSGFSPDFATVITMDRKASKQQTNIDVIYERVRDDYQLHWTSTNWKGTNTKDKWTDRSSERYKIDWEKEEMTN

Consider “6-boc orthinine amide-β-cyclodextrin [6-BOCD]”, for which, in the assay on AnlO, the “change of GFP-positive cell population (inhibition of cytolysis by anlO)” value is “doubling”. Also, the “number of GFP positive cells” value on α-hemolysin was “did not increase”. Moreover, in assay [1], the “infectivity of virus generated in the presence of the compound” value is reported as “no difference in infectivity”.

Take `COc1ccc(C[C@H](N)C(=O)N[C@H]2[C@@H](O)[C@H](n3cnc4c(N(C)C)ncnc43)O[C@@H]2CO)cc1` [puromycin]: the “cytolysis, share of the cells” value with healthy macrophages was 25%. Moreover, the “time to detection of cytolysis” value in the assay on healthy macrophages (500 ng/ml) is on record as no more than 2 days.

These data come from US20110207800A1, “HIV-Dependent expression constructs and uses therefore” (priority 2008, published 2011).
